# Laboratory results from a melting point compilation (Tetko et al.; mined from patent text by program, amines drawn as free bases though some values may be those of a salt).
row,melting point [°C],Compound
1,262 to 263,O=C1c2ccccc2C(=O)N1CC(=O)N1c2ccccc2N(Cc2ccccc2)C(=O)C(Cc2ccccc2)C1C(F)(F)F (stereo unspecified)
2,86,COC(=O)N1C2C3C=CC(C3OC(C)(C)C)C2N1C(=O)OC (stereo unspecified)
3,70,CN1CCC(OC2c3ccccc3CCn3c2nc(-c2ccccc2)c3C=O)CC1 (stereo unspecified)
4,206 to 208,CN=C(NS(=O)(=O)c1ccc(C)cc1)N1CCc2nc(N)sc2C1
5,77 to 78,CCOC(=O)C(CC#N)(C(=O)OCC)C1COC(=O)C1 (stereo unspecified)
6,159,CC(C)N(Cc1ccccc1)S(=O)(=O)N[C@@H](Cc1ccc(NC(=O)c2c(Cl)cccc2Cl)cc1)C(=O)O
7,274 to 275,CCCc1c(/C=C/c2ccc(C)cc2)nc2ccc(C(=O)O)cn2c1=O
8,139 to 142,O=C(O)c1ccc(OCCNC(=O)C2Cc3ccccc3N2S(=O)(=O)c2ccc(-c3ccc(F)cc3)cc2)c(C(F)(F)F)c1 (stereo unspecified)
9,86 to 87,CCOc1cc2c(cc1OC)OC(C)(C)CC2=O
10,168 to 174,Cc1nnn(Cc2cc(-c3ncco3)ccc2-c2ccccc2S(=O)(=O)Nc2onc(C)c2C)n1
11,37 to 38,O=C(CCCCCCCCCCS(=O)c1ccccc1[N+](=O)[O-])OCc1ccccc1 (stereo unspecified)
12,116 to 119,CCSc1noc(-c2ccc(NS(C)(=O)=O)c(Oc3ccc(F)cc3F)c2)n1
13,253 to 256,COc1cc2c(c(OC)c1OC)C=C(C=CC(=O)N1CCC(C3CCN(C(=O)C=CC4=Cc5c(cc(OC)c(OC)c5OC)CC4)CC3)CC1)CC2
14,154,O=S1(=O)c2cccc3cccc(c23)N1CCN1CCC(Cc2cc3cc(F)ccc3[nH]2)CC1
15,91.5 to 92.8,Cc1ccc2nc(-c3ccccc3F)cc(OCc3ccccc3)c2c1
16,284 to 287,O=C(O)c1ccnc(-c2ccc(Cl)c(C(=O)NCC34CC5CC(CC(C5)C3)C4)c2)c1
17,208 to 210,CCOCCCNc1nc(C)[nH]c2cc(-c3ccccc3)nc1-2
18,186 to 187,NC(=S)c1c(Cl)cncc1Cl
19,75 to 78,CCCc1c(CSc2nnc(SCCCC(=O)O)s2)ccc(C(C)=O)c1O
20,164 to 166,O=C1c2ccc(N3CCN(c4ccccc4)CC3)nc2CC2CCCCC12 (stereo unspecified)
21,130 to 135,[N-]=[N+]=NC1=C([C@H]2CC[C@H](c3ccc(Cl)cc3)CC2)C(=O)c2ccccc2C1=O
22,248 to 250,CC(=O)NC[C@H]1CN(c2ccc(C(=O)c3ccc4cnc(C)cn34)cc2)C(=O)O1
23,126 to 127,NC(CO)(CO)CCc1ccc(C(=O)CCCCc2ccccc2)cc1
24,132 to 134,O=C(Nc1cccc(-c2ccnc3c(C(=O)c4cccs4)cnn23)c1)c1ccc(Cl)cc1Cl
25,99 to 100,CC(=O)NC[C@H]1CN(c2ccc(N3CCC(O)(C#N)CC3)c(F)c2)C(=O)O1

row,melting point [°C],Compound
1,243 to 244,Nc1c(-c2ccc(Cl)cc2)nc2ccccc2c1C(=O)O
2,205 to 210,CCOC(=O)C(C#N)=Cc1cc(O)c(O)c([N+](=O)[O-])c1
3,125,C=Cc1ccc2nnn(OS(=O)(=O)c3ccc(Cl)cc3)c2c1
4,215 to 218,CCOC(=O)COCCCC(=CC(N)C(=O)O)CP(=O)(O)O (stereo unspecified)
5,76 to 77,CC=CC(=O)C1C(C)C(=O)CCC1(C)C (stereo unspecified)
6,135 to 137,Fc1ccc(OCCCc2c[nH]cn2)cc1
7,99 to 100,O=S1(=O)CC2(CCCCC2)[C@@H](O)[C@H](c2ccccc2)c2ccccc21 (relative stereo)
8,272 to 274,Cc1cccc2c1NC(=O)C2(c1ccc(O)cc1)c1ccc(O)cc1
9,114 to 116,Oc1ccc(Nc2ccn(Cc3ccccc3)n2)cc1
10,125,O=C(Cl)c1cn(CCCCl)c(=O)c2cc(Cl)ccc12
11,290 to 291,CC1=Nc2c(F)c(F)c(F)c(F)c2SN1
12,217 to 218,CCOC(=O)Nc1cc2c3ccccc3n(CC)c2cn1
13,253 to 295,CC(=O)SCC(Cc1ccccc1)C(=O)NC(CCCNC(=N)N)C(=O)O (stereo unspecified)
14,239 to 242,CC(C)OC(=O)N1CCC(c2nc3cc(-c4ccc(C(=O)O)cn4)ccc3o2)CC1
15,97 to 99,CNCc1cccc2c(=O)c(C)c(-c3ccccc3)oc12
16,264 to 267,Nc1cc[nH]c(=O)c1Cl
17,> 250,Cc1ccc(-c2[nH]c(-c3cnc4ccccc4c3)nc2C(=O)Nc2nccs2)cc1
18,184 to 185,Cc1ccccc1C(=O)OCC1OC(N2CN(C)C(=O)NC2=O)CC1OC(=O)c1ccccc1C (stereo unspecified)
19,101 to 103,CCCC[C@H](NC(=O)[C@@H](NC(=O)OCc1ccccc1)[C@@H](C)CC)C(=O)CSCc1ccco1
20,66 to 67,O=C(C(=O)c1cnn(CC(F)(F)F)c1)c1cccc(Br)c1
21,92 to 94,O=C(OCc1ccc(Cl)cc1)c1ncccc1OCc1ccc(Cl)cc1
22,248 to 249,Cc1nc2c(O)c(CCC(=O)c3ccc(F)cc3)c(C(=O)N(C)C)cc2n1C
23,212 to 215,Cc1ccc(CC2CCN(C(=O)CNc3ccc4[nH]c(=O)oc4c3)CC2)cc1
24,168 to 171,CS(=O)(=O)Nc1cccc(Nc2nc(NCc3ccccc3O)c3nc[nH]c3n2)c1

# More lines, now with the values behind:
row,Compound,melting point [°C]
1,O=C(O)c1ccc(-c2nnn[nH]2)nc1,257 to 259
2,CCCN(C(=O)CC)c1c(C#N)cnn1-c1ccc(OC(F)(F)F)cc1Cl,83
3,CC(=O)NCC1CC(c2ccc(C3=CCN(C(=O)OC(C)(C)C)CC3)cc2)=NO1 (stereo unspecified),117 to 120
4,COC(=O)NNC(=S)Cc1ccccc1,93.5 to 94
5,COC(=O)c1ccc(Cn2ncc3ccc(N)cc32)cc1,131 to 132
6,Cc1cccc(-c2oc3c(C(=O)NCCCN4CCCCC4)cccc3c(=O)c2C)c1,112 to 114
7,Fc1cc(F)c(-c2ccccc2)c(F)c1F,86 to 88
8,CCCCCCCNC(=O)Nc1ccccc1C(=O)NC1CCCNC1 (stereo unspecified),165
9,CN(C)S(=O)(=O)NC(=O)N1CC(c2ccccc2)C(c2ccc(Cl)cc2)=N1 (stereo unspecified),210 to 212
10,CC(C)NC1=Nc2ccc(Cl)cc2S(=O)(=O)N1C,139 to 141
11,CCCn1nc2c(Cl)nc3ccccc3c2c1C,145 to 147
12,O=C(O)c1cnc2ccc(Cl)cc2c1-c1ccccc1,269 to 270
13,CC(=O)SCCS(=O)(=O)N1CCC[C@H]1C(=O)OC(C)(C)C,46 to 50
14,O=C(OC(c1ccccc1)c1ccccc1)C(NC=S)c1ccccc1 (stereo unspecified),129 to 130
15,Cc1nc2ccccc2n1CCc1ccccc1,104 to 106
16,CC(C)(Oc1ccc(C(=O)NCc2ccc(Cl)cc2)cc1)C(=O)O,180
17,CN(C(=O)C1CCC1)c1cccc(-c2ccnc3c(C#N)cnn23)c1,157 to 158
18,COc1ccc(-c2nc(C(=O)OC(C)C)cc(Cl)c2Cl)cc1,113 to 116
19,CC(C)(C)OC(=O)NCC1CN[C@@H]2CCO[C@H]12 (relative stereo),59 to 67
20,CC(C)c1ccc2c(c1)c(=O)[nH]c1c2c2ccccc2n1C,315 to 325
21,CCOC(=O)NC(=S)Nc1cc(NC(=O)OC)ccc1NC(=O)CN(C)C,171 to 172
22,CCC(CC)Oc1nc(C)nc(Nc2c(C)cc(C)cc2C)c1C(=O)O,118 to 120
23,O=C(Cc1ccncc1)c1ccc(Cl)cc1,95.5 to 97.3
24,Nc1ccc(/C=C/c2ccccc2)cc1,151
25,Fc1ccc(-c2nn3c(c2-c2ccncc2)NCC3)cc1,213 to 214
26,O=C(Nc1cc(F)cc2c(=O)cc(C(=O)O)oc12)c1ccc2c(c1)CC(CCCc1ccccc1)O2 (stereo unspecified),183 to 185

row,Compound,melting point [°C]
1,Cc1n[nH]c(C)c1-c1nn(C(C)c2oc3ccccc3c(=O)c2-c2cccc(F)c2)c2ncnc(N)c12 (stereo unspecified),240 to 243
2,Nc1cc(C2=NOC(c3cc(Cl)cc(Cl)c3)(C(F)(F)F)C2)ccc1C(=O)NCC(F)(F)F (stereo unspecified),78 to 79
3,COc1ccccc1C1OC2(CCNCC2)N2CCCCC12 (stereo unspecified),185 to 186
4,COCCOc1ccc(CC(OC)C(=O)O)c(Oc2ncc(C(F)(F)F)cc2Cl)c1 (stereo unspecified),93 to 96
5,O=C(O)c1cn(C2COC2)c2cc(N3CCNCC3)c(F)c(O)c2c1=O,266 to 273
6,CCOC(=O)C(CC(=O)c1cc(F)ccc1OC)(NC(C)=O)C(=O)OCC,123 to 124
7,CCCCCCc1cc2c(s1)NC(=O)C(C)N=C2c1ccccc1C (stereo unspecified),173 to 175
8,CCN(CC)CCNC(=O)c1cccc2nc3cc(I)ccc3nc12,140 to 142
9,COC1C(=O)NC=C1Cl (stereo unspecified),96 to 98
10,CCOC(=O)c1ccc(NCc2cc(Br)ccc2OCc2ccccc2)c(OC)c1,78
11,Fc1cc(F)c2c(c1)CC(n1cc[nH]c1=S)CC2 (stereo unspecified),250 to 251
12,O=C1NCc2ccsc21,104 to 105
13,CC(C)CCN1C(=O)C(NC(=O)n2ccnc2)C(=O)N(c2ccccc2)c2ccccc21 (stereo unspecified),62 to 65
14,CCOC(=O)CCCNc1cccc(Br)c1,65
15,Cc1nc(NC(=O)c2cnccn2)c(Br)c(C)c1Br,166
16,CN1C(=O)C2(COc3cc4c(cc32)OCCO4)c2c(NC(=O)NC3CCCCC3)cccc21 (stereo unspecified),175 to 177
17,O=C(O)c1cn(-c2cccnc2)nc1Br,270 to 278
18,Cc1n[nH]c2c(C(=O)NC3(C4CC4)CC3)c(NC(=O)c3cc(C(F)(F)F)nn3-c3ncccc3Cl)c(Cl)cc12,228 to 229
19,NC(=S)Nc1cnccn1,234 to 235
20,CC(=O)Nc1cccc2c1CCC(NC(C)c1ccccc1)C2 (stereo unspecified),158
21,CC(C)c1c(CO)c(-c2ccc(F)cc2)c2n1CCCC2,97 to 99
22,CCOC(=O)C=Cc1ccc(N)c(O)c1,134 to 135
23,Cc1ccc(OCc2sccc2S(=O)(=O)Nc2onc(C)c2Br)cc1,128 to 130
24,CCOP(=O)(CCc1ccnc(-c2nc(=O)c3ccc(Cl)cc3s2)c1)OCC,138 to 139
25,CC(C)C[C@H](NC(=O)[C@H](Cc1ccccc1)NC(=O)OCc1ccccc1)C(=O)N[C@@H](C(C)C)[C@@H](O)c1c(-c2ccccc2)c1=O,128 to 130
26,CC(=O)C(C#N)c1ccccc1 (stereo unspecified),> 215
